# Assay results published in patent publication US9580439B2, “Inhibitors of focal adhesion kinase” (The Scripps Research Institute, priority 2007, dated 2017).
# Molecular target: FAK (411-686, activated by Src and repurified) (Homo sapiens, UniProt Q05397)
# Assay: FAK Biochemical Assay (cell-free, HTRF)
# Conditions: 10 μM ATP, read-out: 50% inhibitory concentrations (IC50) against focal adhesion kinase in the cell-free assay
# Protocol: All experiments were performed in Greiner FIA black 384-well low volume plates.
# A 5 μl mixture of a 200 nM Ulight-poly GT substrate (Perkin Elmer) and 10 μM ATP in Kinase buffer (50 mM Hepes pH 7.3, 10 mM MgCl2, 1 mM EGTA, 0.01% Tween-20, 2 mM dithriothreitol) was dispensed into the wells. […] of 90% DMSO/10% water containing the compounds to be tested was added to the wells. Kinase reaction was started by addition of 5 μl of 1 nM FAK (411-686, activated by Src and repurified) in Kinase buffer. After 50 min at RT the reaction was stopped with 5 μl of 40 mM EDTA in detection buffer (Perkin Elmer, Lance detection buffer) followed by a 5 μl addition of 8 nM LANCE Ei-W1024 anti-phosphotyrosine (PY20) antibody in detection buffer. After 1 h incubation at RT the plate was read on the Viewlux in HTRF mode.
# FAK (411-686, activated by Src and repurified), sequence (Q05397 411-686, species assumed): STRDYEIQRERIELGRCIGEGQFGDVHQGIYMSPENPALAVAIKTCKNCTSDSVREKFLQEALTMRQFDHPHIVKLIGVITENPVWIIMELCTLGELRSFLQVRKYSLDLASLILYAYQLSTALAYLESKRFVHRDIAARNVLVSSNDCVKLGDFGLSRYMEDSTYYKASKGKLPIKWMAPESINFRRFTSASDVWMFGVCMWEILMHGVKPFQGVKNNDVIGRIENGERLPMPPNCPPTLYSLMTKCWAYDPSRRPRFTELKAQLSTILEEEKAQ
row,IC50 [µM],Compound
1,> 10,"CN1Cc2cccc(Nc3cc(Nc4cccc5c4C(=O)N(C)C5)c(C(F)(F)F)cn3)c2C1=O [Compound 3, 7,7′-(5-(trifluoromethyl)pyridine-2,4-diyl)bis(azanediyl)bis(2-methylisoindolin-1-one)]"
2,> 10,CNS(=O)(=O)c1ccccc1Nc1cc(Nc2ccccc2S(=O)(=O)NC)c(C(F)(F)F)cn1 [Compound 5]
